Measurements: patent publication US20020137054A1, “AXOR35, a G-protein coupled receptor” (SmithKline Beecham Corporation & SmithKline Beecham plc, priority 1999, published 2002)
Where a name gives a salt, the structure may show the parent alone.

Legend:
[1] = target: T1, AXOR35 (Homo sapiens, UniProt Q9H3N8); settings: histamine challenge of control cells transiently expressing AXOR35
Description: Prior to challenge with histamine, cells transiently expressing AXOR35 are treated with increasing concentrations of test compound. […] Antagonist activity is calculated as the concentration of test compound required to inhibit 50% of a maximum histamine response (IC50).

[2] = target: T1, AXOR35; settings: calcium mobilization response, method analogous to Example 8

T1 sequence (Q9H3N8 whole entry): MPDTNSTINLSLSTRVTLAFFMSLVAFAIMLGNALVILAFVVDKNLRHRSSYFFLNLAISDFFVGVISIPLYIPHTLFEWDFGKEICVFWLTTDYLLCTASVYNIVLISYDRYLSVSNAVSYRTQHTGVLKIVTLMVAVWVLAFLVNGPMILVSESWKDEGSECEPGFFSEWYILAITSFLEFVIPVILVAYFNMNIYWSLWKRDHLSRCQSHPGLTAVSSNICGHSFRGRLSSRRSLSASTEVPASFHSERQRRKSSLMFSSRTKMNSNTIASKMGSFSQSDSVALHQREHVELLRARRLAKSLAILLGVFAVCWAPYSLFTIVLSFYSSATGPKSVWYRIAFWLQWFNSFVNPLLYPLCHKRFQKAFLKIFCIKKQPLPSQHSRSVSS

Work on `NCC(c1ccccc1)c1cnc[nH]1` (stereo not shown) (as salt: hydrochloride) yielded a melting point of 264 to 266 °C.

`NCC(Cc1ccc(Cl)cc1)c1c[nH]cn1` (stereo not shown) (as salt: hydrochloride) gave a melting point of 254 to 256 °C.

For `NCCc1c[nH]cn1` [histamine, 1H-imidazole-4-ethanamine], the EC80 [1] was 100 nM and the “ligand for AXOR35” value [2] was “ligands for AXOR35”.
